{"source": "paper PMC9814781", "about": "“Structure-based design of a dual-warhead covalent inhibitor of FGFR4” (Communications Chemistry, 2022)", "key": {"[1]": {"assay": "In vitro plasma stability study", "assay_type": "in vitro ADME", "conditions": "for half-life at 2 µg/mL: 37°C, read-out: in vitro t1/2 (converted); for R squared / Slope: linear regression 0–10 h", "method": "The incubation was terminated by the addition of 300 µL of acetonitrile containing 50 ng/mL roblitinib as internal standard. After vortex and centrifugation, the supernatant was analyzed using ultraperformance liquid chromatography-tandem mass spectrometry."}, "[2]": {"target": "TSSK1 (Homo sapiens, UniProt Q9BXA7)", "assay": "Kinase selectivity profiling"}, "[3]": {"target": "LYNb (Homo sapiens, UniProt P07948)", "assay": "Kinase selectivity profiling"}, "[4]": {"target": "GSK3α (Homo sapiens, UniProt P49840)", "assay": "Kinase selectivity profiling"}, "[5]": {"target": "EPHA6 (Homo sapiens, UniProt Q9UF33)", "assay": "Kinase selectivity profiling"}, "[6]": {"target": "AKT1 (Homo sapiens, UniProt P31749)", "assay": "Kinase selectivity profiling"}, "[7]": {"target": "MER (Homo sapiens, UniProt Q12866)", "assay": "Kinase selectivity profiling"}, "[8]": {"target": "SRC (Homo sapiens, UniProt P12931)", "assay": "Kinase selectivity profiling"}, "[9]": {"target": "AKT2 (Homo sapiens, UniProt P31751)", "assay": "Kinase selectivity profiling"}, "[10]": {"target": "CSK (Homo sapiens, UniProt P41240)", "assay": "Kinase selectivity profiling"}, "[11]": {"target": "PAK1 (Homo sapiens, UniProt Q13153)", "sequence (Q13153 whole entry)": "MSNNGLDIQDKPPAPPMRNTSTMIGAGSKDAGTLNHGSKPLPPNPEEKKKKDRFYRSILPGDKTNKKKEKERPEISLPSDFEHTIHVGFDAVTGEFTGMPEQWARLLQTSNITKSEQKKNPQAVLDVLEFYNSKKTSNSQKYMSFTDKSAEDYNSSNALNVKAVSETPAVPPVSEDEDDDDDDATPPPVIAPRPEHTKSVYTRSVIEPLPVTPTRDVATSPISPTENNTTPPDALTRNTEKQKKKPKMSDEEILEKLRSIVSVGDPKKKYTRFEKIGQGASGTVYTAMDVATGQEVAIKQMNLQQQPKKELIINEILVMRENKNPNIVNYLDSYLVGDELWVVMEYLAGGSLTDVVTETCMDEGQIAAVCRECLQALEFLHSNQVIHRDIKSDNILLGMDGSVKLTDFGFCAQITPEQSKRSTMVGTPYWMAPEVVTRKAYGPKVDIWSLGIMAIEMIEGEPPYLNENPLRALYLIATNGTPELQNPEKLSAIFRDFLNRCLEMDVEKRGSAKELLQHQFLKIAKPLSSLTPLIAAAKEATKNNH", "assay": "Kinase selectivity profiling"}, "[12]": {"target": "AurC (Homo sapiens, UniProt Q9UQB9)", "assay": "Kinase selectivity profiling"}, "[13]": {"target": "DDR2 (Homo sapiens, UniProt Q16832)", "assay": "Kinase selectivity profiling"}, "[14]": {"target": "p70S6K (Homo sapiens, UniProt P23443)", "assay": "Kinase selectivity profiling"}, "[15]": {"target": "CHK1(CHEK1) (Homo sapiens, UniProt O14757)", "assay": "Kinase selectivity profiling"}, "[16]": {"target": "CDK7/CycH/MAT1 (Homo sapiens, UniProt P50613)", "sequence (P50613 whole entry)": "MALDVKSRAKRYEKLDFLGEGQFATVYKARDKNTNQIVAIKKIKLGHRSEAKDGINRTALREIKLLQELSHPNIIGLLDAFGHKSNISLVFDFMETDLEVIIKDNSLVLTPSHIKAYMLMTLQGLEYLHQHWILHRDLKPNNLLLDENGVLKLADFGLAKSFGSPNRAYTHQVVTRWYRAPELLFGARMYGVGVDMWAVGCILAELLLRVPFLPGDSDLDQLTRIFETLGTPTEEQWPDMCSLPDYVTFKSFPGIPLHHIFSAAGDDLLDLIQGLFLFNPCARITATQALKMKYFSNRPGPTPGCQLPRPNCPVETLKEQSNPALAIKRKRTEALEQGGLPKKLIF", "sequence (P51946 whole entry partner)": "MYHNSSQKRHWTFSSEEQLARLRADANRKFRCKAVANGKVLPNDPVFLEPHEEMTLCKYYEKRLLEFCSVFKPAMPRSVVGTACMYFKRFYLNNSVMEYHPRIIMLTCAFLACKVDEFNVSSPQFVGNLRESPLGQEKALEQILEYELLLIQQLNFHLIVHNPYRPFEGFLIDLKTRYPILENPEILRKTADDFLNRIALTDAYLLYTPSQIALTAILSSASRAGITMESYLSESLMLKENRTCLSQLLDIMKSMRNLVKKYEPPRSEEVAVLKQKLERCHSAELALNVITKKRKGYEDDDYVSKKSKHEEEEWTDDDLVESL", "sequence (P51948 whole entry partner)": "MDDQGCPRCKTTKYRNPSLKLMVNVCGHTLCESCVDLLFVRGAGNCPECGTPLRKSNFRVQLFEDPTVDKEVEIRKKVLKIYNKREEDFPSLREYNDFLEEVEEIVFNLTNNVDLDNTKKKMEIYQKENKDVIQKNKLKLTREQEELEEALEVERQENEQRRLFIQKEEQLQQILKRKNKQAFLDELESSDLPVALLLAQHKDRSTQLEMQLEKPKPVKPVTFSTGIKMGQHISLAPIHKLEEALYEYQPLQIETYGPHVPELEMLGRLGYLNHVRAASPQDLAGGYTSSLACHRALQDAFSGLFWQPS", "assay": "Kinase selectivity profiling"}, "[17]": {"target": "SGK2 (Homo sapiens, UniProt Q9HBY8)", "assay": "Kinase selectivity profiling"}, "[18]": {"target": "DYRK2 (Homo sapiens, UniProt Q92630)", "assay": "Kinase selectivity profiling"}, "[19]": {"target": "PIK3CB/PIK3R1 (Homo sapiens, UniProt P42338)", "assay": "Kinase selectivity profiling"}, "[20]": {"target": "ROS1 (Homo sapiens, UniProt P08922)", "assay": "Kinase selectivity profiling"}, "[21]": {"target": "TAOK1 (Homo sapiens, UniProt Q7L7X3)", "assay": "Kinase selectivity profiling"}, "[22]": {"target": "CDK1/CycA2 (Homo sapiens, UniProt P06493)", "assay": "Kinase selectivity profiling"}, "[23]": {"target": "DYRK1A (Homo sapiens, UniProt Q13627)", "assay": "Kinase selectivity profiling"}, "[24]": {"target": "CK1δ (Homo sapiens, UniProt P48730)", "assay": "Kinase selectivity profiling"}, "[25]": {"target": "HPK1 (Homo sapiens, UniProt Q92918)", "assay": "Kinase selectivity profiling"}, "[26]": {"target": "RSK1 (Homo sapiens, UniProt Q15418)", "assay": "Kinase selectivity profiling"}, "[27]": {"target": "DDR1 (Homo sapiens, UniProt Q08345)", "sequence (Q08345 19-913)": "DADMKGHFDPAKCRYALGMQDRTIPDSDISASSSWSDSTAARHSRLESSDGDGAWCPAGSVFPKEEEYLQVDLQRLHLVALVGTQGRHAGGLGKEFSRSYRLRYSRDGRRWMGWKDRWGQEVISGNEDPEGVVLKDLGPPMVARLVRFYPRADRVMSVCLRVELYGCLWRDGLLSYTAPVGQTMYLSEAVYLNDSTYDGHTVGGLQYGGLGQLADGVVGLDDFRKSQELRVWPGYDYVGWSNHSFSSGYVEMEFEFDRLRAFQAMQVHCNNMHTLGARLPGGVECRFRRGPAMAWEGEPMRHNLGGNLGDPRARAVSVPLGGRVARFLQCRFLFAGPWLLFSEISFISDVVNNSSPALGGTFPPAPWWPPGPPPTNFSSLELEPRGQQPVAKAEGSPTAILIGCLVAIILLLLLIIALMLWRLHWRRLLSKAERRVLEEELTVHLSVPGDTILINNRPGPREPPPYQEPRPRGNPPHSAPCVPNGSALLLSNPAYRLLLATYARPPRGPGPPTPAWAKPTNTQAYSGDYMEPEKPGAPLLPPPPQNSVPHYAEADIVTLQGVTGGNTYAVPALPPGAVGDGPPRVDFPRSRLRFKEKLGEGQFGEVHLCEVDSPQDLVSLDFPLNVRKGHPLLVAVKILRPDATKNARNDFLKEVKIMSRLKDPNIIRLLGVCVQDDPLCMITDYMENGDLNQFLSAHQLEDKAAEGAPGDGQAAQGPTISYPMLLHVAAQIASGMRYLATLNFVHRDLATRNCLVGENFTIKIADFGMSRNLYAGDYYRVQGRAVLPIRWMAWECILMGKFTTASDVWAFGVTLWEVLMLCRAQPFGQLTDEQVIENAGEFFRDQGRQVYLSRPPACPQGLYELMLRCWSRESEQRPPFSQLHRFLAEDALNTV", "assay": "Kinase selectivity profiling"}, "[28]": {"target": "RON (Homo sapiens, UniProt Q04912)", "sequence (Q04912 25-1400)": "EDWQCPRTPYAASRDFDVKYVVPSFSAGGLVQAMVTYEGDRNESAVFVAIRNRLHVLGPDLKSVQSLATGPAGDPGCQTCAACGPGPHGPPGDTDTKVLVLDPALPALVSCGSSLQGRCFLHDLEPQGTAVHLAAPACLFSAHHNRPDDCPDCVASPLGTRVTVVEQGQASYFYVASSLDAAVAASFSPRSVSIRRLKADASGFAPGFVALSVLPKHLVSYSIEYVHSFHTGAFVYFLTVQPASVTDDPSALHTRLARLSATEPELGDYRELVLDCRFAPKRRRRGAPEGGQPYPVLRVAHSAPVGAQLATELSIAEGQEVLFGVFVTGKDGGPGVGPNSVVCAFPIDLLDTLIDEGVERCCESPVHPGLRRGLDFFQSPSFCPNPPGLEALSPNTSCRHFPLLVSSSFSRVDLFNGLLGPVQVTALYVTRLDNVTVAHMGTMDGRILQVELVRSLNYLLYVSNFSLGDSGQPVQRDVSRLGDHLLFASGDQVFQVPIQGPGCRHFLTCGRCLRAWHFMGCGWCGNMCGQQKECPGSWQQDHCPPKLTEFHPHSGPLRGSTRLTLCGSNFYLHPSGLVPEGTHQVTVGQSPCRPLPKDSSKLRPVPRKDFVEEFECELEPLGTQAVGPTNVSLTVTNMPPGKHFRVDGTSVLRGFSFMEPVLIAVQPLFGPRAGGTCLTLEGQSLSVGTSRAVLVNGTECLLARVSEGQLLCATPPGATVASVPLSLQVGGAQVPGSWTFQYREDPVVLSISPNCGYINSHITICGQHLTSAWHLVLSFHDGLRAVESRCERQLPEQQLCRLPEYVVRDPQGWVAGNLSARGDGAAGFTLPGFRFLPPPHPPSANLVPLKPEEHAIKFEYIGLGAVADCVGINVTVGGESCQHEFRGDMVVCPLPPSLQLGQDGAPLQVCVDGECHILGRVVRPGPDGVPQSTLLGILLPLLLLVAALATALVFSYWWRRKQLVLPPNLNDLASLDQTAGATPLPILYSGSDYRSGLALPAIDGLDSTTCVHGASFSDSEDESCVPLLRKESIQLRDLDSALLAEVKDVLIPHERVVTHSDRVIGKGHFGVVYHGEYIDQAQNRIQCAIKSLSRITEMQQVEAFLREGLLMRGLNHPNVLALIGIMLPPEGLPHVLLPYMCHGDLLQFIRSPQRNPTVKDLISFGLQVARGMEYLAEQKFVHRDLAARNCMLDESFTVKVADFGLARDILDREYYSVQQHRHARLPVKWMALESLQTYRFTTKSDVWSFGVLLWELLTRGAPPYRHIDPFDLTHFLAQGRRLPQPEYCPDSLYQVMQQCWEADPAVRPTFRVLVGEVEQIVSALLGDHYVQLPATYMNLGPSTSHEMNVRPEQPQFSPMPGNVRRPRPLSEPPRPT", "assay": "Kinase selectivity profiling"}, "[29]": {"target": "CK1ε (Homo sapiens, UniProt P49674)", "assay": "Kinase selectivity profiling"}, "[30]": {"target": "CK1γ2 (Homo sapiens, UniProt P78368)", "sequence (P78368 whole entry)": "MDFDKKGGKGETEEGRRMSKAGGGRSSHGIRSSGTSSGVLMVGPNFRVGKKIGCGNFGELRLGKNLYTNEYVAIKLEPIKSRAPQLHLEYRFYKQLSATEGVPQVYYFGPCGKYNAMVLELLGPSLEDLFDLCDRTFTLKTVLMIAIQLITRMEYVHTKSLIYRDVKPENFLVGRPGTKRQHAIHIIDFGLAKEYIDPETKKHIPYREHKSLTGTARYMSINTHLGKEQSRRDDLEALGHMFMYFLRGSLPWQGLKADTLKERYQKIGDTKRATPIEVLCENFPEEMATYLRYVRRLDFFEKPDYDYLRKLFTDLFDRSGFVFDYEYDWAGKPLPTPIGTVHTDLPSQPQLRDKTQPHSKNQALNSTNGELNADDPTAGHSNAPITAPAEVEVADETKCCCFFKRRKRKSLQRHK", "assay": "Kinase selectivity profiling"}, "[31]": {"target": "CDK1/CycE1 (Homo sapiens, UniProt P06493)", "assay": "Kinase selectivity profiling"}, "[32]": {"target": "AXL (Homo sapiens, UniProt P30530)", "assay": "Kinase selectivity profiling"}, "[33]": {"target": "CK2α2/β (Homo sapiens, UniProt P19784)", "assay": "Kinase selectivity profiling"}, "[34]": {"target": "DYRK3 (Homo sapiens, UniProt O43781)", "sequence (O43781 whole entry)": "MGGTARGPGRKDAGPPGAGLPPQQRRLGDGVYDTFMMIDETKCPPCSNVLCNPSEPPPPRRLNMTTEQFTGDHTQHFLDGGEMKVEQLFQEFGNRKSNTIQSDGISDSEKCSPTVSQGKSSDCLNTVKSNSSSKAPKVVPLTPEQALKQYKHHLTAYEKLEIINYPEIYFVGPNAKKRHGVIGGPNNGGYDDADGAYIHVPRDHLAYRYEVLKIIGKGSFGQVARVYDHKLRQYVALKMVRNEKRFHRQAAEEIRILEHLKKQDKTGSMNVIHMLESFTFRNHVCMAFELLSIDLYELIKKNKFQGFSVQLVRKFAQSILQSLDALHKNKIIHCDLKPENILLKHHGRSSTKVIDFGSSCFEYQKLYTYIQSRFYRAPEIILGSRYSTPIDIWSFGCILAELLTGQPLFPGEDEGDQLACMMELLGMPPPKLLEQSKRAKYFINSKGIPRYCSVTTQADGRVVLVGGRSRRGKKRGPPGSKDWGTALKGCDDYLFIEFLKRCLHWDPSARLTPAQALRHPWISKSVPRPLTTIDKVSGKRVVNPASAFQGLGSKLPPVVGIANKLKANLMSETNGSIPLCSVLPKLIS", "assay": "Kinase selectivity profiling"}, "[35]": {"target": "TNIK (Homo sapiens, UniProt Q9UKE5)", "assay": "Kinase selectivity profiling"}}, "note": "Like-named read-outs stand apart in the source and are kept apart here."}
{"compound": "C=CC(=O)Nc1ccccc1Nc1ncc2c(n1)N(CCCN1CCN(C(=O)C=C)CC1)C(=O)N(c1cc(OC)cc(OC)c1)C2", "note": "[CXF-009]", "values": [{"measurement": "half-life at 2 µg/mL", "setting": "[1]; human plasma", "result": 3.73, "unit": "h"}, {"measurement": "R squared", "setting": "[1]; human plasma", "result": 0.9969}, {"measurement": "Slope", "setting": "[1]; human plasma", "result": "−0.1859"}, {"measurement": "half-life at 2 µg/mL", "setting": "[1]; rat plasma", "result": 4.99, "unit": "h"}, {"measurement": "R squared", "setting": "[1]; rat plasma", "result": 0.9935}, {"measurement": "Slope", "setting": "[1]; rat plasma", "result": "−0.1388"}, {"measurement": "inhibition at 1 µM", "setting": "[2]", "result": 30, "unit": "%"}, {"measurement": "inhibition at 1 µM", "setting": "[3]", "result": 7.62, "unit": "%"}, {"measurement": "inhibition at 1 µM", "setting": "[4]", "result": 5.79, "unit": "%"}, {"measurement": "inhibition at 1 µM", "setting": "[5]", "result": 5.28, "unit": "%"}, {"measurement": "inhibition at 1 µM", "setting": "[6]", "result": 3.98, "unit": "%"}, {"measurement": "inhibition at 1 µM", "setting": "[7]", "result": 3.59, "unit": "%"}, {"measurement": "inhibition at 1 µM", "setting": "[8]", "result": 3.48, "unit": "%"}, {"measurement": "inhibition at 1 µM", "setting": "[9]", "result": 3.35, "unit": "%"}, {"measurement": "inhibition at 1 µM", "setting": "[10]", "result": 3.29, "unit": "%"}, {"measurement": "inhibition at 1 µM", "setting": "[11]", "result": 3.22, "unit": "%"}, {"measurement": "inhibition at 1 µM", "setting": "[12]", "result": 2.77, "unit": "%"}, {"measurement": "inhibition at 1 µM", "setting": "[13]", "result": 2.15, "unit": "%"}, {"measurement": "inhibition at 1 µM", "setting": "[14]", "result": 1.69, "unit": "%"}, {"measurement": "inhibition at 1 µM", "setting": "[15]", "result": 1.53, "unit": "%"}, {"measurement": "inhibition at 1 µM", "setting": "[16]", "result": 1.27, "unit": "%"}, {"measurement": "inhibition at 1 µM", "setting": "[17]", "result": 0.51, "unit": "%"}, {"measurement": "inhibition at 1 µM", "setting": "[18]", "result": 0.38, "unit": "%"}, {"measurement": "inhibition at 1 µM", "setting": "[19]", "result": 0.17, "unit": "%"}, {"measurement": "inhibition at 1 µM", "setting": "[20]", "result": -0.51, "unit": "%"}, {"measurement": "inhibition at 1 µM", "setting": "[21]", "result": -0.59, "unit": "%"}, {"measurement": "inhibition at 1 µM", "setting": "[22]", "result": -1.02, "unit": "%"}, {"measurement": "inhibition at 1 µM", "setting": "[23]", "result": -1.23, "unit": "%"}, {"measurement": "inhibition at 1 µM", "setting": "[24]", "result": -1.29, "unit": "%"}, {"measurement": "inhibition at 1 µM", "setting": "[25]", "result": -2.36, "unit": "%"}, {"measurement": "inhibition at 1 µM", "setting": "[26]", "result": -2.52, "unit": "%"}, {"measurement": "inhibition at 1 µM", "setting": "[27]", "result": -3.41, "unit": "%"}, {"measurement": "inhibition at 1 µM", "setting": "[28]", "result": -4.53, "unit": "%"}, {"measurement": "inhibition at 1 µM", "setting": "[29]", "result": -4.6, "unit": "%"}, {"measurement": "inhibition at 1 µM", "setting": "[30]", "result": -4.8, "unit": "%"}, {"measurement": "inhibition at 1 µM", "setting": "[31]", "result": -7.18, "unit": "%"}, {"measurement": "inhibition at 1 µM", "setting": "[32]", "result": -7.53, "unit": "%"}, {"measurement": "inhibition at 1 µM", "setting": "[33]", "result": -7.98, "unit": "%"}, {"measurement": "inhibition at 1 µM", "setting": "[34]", "result": -12, "unit": "%"}, {"measurement": "inhibition at 1 µM", "setting": "[35]", "result": -13.4, "unit": "%"}]}
